Test results taken from patent publication US7064120B2, “Tricyclic pyridyl carboxamides and derivatives thereof tocolytic oxytocin receptor antagonists” (Wyeth, priority 2001, dated 2006).

These compounds were tested against T1, human oxytocin receptor (Homo sapiens, UniProt P30559) (assay: Oxytocin binding in CHO cell membranes expressing human oxytocin receptors ([3H]oxytocin radioligand binding)). Conditions: 100 nM, read-out: OT % inhibition @ 100 nM.
T1 construct: host or cells: CHO cells, stably transfected (pcDNA3.1 vector)
T1 sequence (P30559 1-389): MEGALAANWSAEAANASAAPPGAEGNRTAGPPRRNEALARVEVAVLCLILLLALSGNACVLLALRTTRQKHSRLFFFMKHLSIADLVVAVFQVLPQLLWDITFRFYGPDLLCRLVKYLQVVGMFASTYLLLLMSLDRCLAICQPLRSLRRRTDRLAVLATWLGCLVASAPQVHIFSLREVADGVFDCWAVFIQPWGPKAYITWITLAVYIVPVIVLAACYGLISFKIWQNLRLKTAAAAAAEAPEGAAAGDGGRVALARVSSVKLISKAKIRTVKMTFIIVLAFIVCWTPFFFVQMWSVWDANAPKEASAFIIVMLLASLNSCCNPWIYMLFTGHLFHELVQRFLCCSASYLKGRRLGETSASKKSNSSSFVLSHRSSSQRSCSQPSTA
Description: Oxytocin Binding in Chinese Hamster Ovary Cell Membranes Expressing Human Oxytocin Receptors
Cell Culture medium (e.g. 30 mL for 1:30 split) is immediately added and mixed well to inactivate trypsin. 1 mL of detached cells is added to new culture flasks containing fresh Cell Culture medium (e.g. into 25 mL per T-150 flask), and mixed gently. The cells are incubated at 37° C. in 5% CO2. The medium is changed at 3 to 4 days interval (or as appropriate). […] All steps are done under sterile conditions.
The cells are washed twice gently with Hank's Balanced Salt solution (e.g., use 10 mL per T-150 flask). […] The contents are transferred to centrifuge tubes (50 mL size) kept in ice bath. All subsequent steps are done at 4° C. The tubes are centrifuged at 300×g for 15 min (1380 rpm on SORVAL, Model RT6000D, using rotor for 50 mL tubes). The supernatant is discarded and the cells suspended in homogenizing buffer (10 mM Tris-HCl containing 0.25 M sucrose and 1 mM EDTA, pH 7.4) ensuring that the volume of the buffer is about ten times the volume of the cell pellet. The cells are pooled into a centrifuge tube (50 mL) and homogenized with a Polytron at setting 6 for 10 sec. The homogenate is transferred into a Potter-Elvjehm homogenizer and homogenized with 3 strokes. The homogenate is centrifuged at 1500×g for 10 min at 4° C. (3100 rpm using SORVAL, model RT6000D, using a rotor for 50 mL tubes). The pellet is discarded. The supernatant is centrifuged at 100,000×g for 60 min. at 4° C. (Beckman L8-80M ultracentrifuge; spin at 37,500 rpm with rotor type 70 Ti for 50 mL tubes; 38,000 rpm with rotor type 8OTi for 15 mL tubes; or 35,800 rpm with rotor type 45Ti). The supernantant is discarded and the pellet suspended in 3 to 4 mL of Tris buffer (50 mM TRIS-HCl, pH 7.4). The protein content is estimated by the Bradford or Lowry method. The volume of the membrane suspension is adjusted with the membrane buffer (50 mM Tris-HCl containing 0.1% BSA and 0.1 mM PMSF) to give 3.0 mg/mL (or as appropriate) of protein. The membranes are aliquoted and stored at −70° C.
In wells of a 96-well format microtiter plate, is added 90, 110 or 130 μL (to make up a final volume of 200 μL) of assay buffer containing 50 mM of Tris-HCl (pH 7.4), […], 1 mg % aprotinin, 1 mg % leupeptin, 2 mg % 1,10-phenanthroline, 10 mg % trypsin inhibitor, and 0.1 mM PMSF. The inhibitors are added on the day of the experiment. The components are mixed at room temperature, and then kept in ice bath following adjustment of the pH to 7.4. […] For oxytocin and other peptide ligands, 20 μL of 50% DMSO is added and the assay buffer volume is adjusted accordingly. To each well is added 50 μL of frozen membrane suspension thawed immediately prior to use and diluted in assay buffer to the required concentration (equivalent to 25 to 50 μg of protein/well as needed). 20 μL of 8 nM [^3H]oxytocin in the assay buffer, prepared just before use is added and incubated at room temperature for 60 min. shaking the plate on a mechanical shaker for the first 15 min. The incubation is stopped by rapid filtration of the plate contents followed by washing with ice-cold buffer (50 mM Tris-HCl, pH 7.4) using a cell harvester (Tomtek and Printed filtermat-B filter paper). The filter paper is thoroughly dried (7–12 min. in a microwave oven) and impregnated with MeltiLex B/H melt-on scintillation wax sheets and the radioactivity counted in a betaplate scintillation counter.
Binding data is either reported as percent inhibition at a certain concentration or if an IC50 was calculated, as a nanomolar concentration.
Compound `COc1ccccc1-c1ccc(C(=O)N2Cc3ccc(C(=O)NCc4ccccn4)n3Cc3ccccc32)cc1C` [Example 24, 10-[(2′-Methoxy-2-methyl-[1,1′-biphenyl]-4-yl)carbonyl]-N-(2-pyridinylmethyl)-10,11-dihydro-5H-pyrrolo[2,1-c][1,4]benzodiazepine-3-carboxamide] has an inhibition at 0.1 µM of 50%. `COc1cccc(-c2ccc(C(=O)N3Cc4ccc(C(=O)NCc5ccccn5)n4Cc4ccccc43)cc2C)c1` [Example 25, 10-[(3′-Methoxy-2-methyl-[1,1′-biphenyl]-4-yl)carbonyl]-N-(2-pyridinylmethyl)-10,11-dihydro-5H-pyrrolo[2,1-c][1,4]benzodiazepine-3-carboxamide] showed an inhibition at 0.1 µM of 50%. Work on `COc1ccccc1-c1ccc(C(=O)N2Cc3ccc(C(=O)NCc4ccccn4)n3Cc3ccccc32)cc1` [Example 26, 10-[(2′-Methoxy-[1,1′-biphenyl]-4-yl)carbonyl]-N-(2-pyridinylmethyl)-10,11-dihydro-5H-pyrrolo[2,1-c][1,4]benzodiazepine-3-carboxamide] yielded an inhibition at 0.1 µM of 47%. For `Cc1ccccc1-c1ccc(C(=O)N2Cc3ccc(C(=O)NCc4ccccn4)n3Cc3ccccc32)cc1` [Example 27, 10-[(2′-Methyl-[1,1′-biphenyl]-4-yl)carbonyl]-N-(2-pyridinylmethyl)-10,11-dihydro-5H-pyrrolo[2,1-c][1,4]benzodiazepine-3-carboxamide], the inhibition at 0.1 µM was 22%. For `COc1cc(C(=O)N2Cc3ccc(C(=O)NCc4ccccn4)n3Cc3ccccc32)ccc1-c1ccccc1C` [Example 28, 10-[(2-Methoxy-2′-methyl-[1,1′-biphenyl]-4-yl)carbonyl]-N-(2-pyridinylmethyl)-10,11-dihydro-5H-pyrrolo[2,1-c][1,4]benzodiazepine-3-carboxamide], the inhibition at 0.1 µM was 50%. `COc1cc(-c2ccccc2C)c(Cl)cc1C(=O)N1Cc2ccc(C(=O)NCc3ccccn3)n2Cc2ccccc21` [Example 29, 10-[(6-Chloro-3-methoxy-2′-methyl-[1,1′-biphenyl]-4-yl)carbonyl]-N-(2-pyridinylmethyl)-10,11-dihydro-5H-pyrrolo[2,1-c][1,4]benzodiazepine-3-carboxamide] gave an inhibition at 0.1 µM of 42%. `COc1cccc(-c2cc(OC)c(C(=O)N3Cc4ccc(C(=O)NCc5ccccn5)n4Cc4ccccc43)cc2Cl)c1` [Example 30, 10-[(6-Chloro-3,3′-dimethoxy-[1,1′-biphenyl]-4-yl)carbonyl]-N-(2-pyridinylmethyl)-10,11-dihydro-5H-pyrrolo[2,1-c][1,4]benzodiazepine-3-carboxamide] was tested, and the inhibition at 0.1 µM was 25%. Compound `COc1cc(C(=O)N2Cc3ccc(C(=O)NCc4ccccn4)n3Cc3ccccc32)ccc1-c1cccc2ccccc12` [Example 31, 10-[3-Methoxy-4-(naphthalen-1-yl)benzoyl]-N-(2-pyridinylmethyl)-10,11-dihydro-5H-pyrrolo[2,1-c][1,4]benzodiazepine-3-carboxamide] has an inhibition at 0.1 µM of 18%. For `COc1ccccc1-c1ccc(C(=O)N2Cc3ccc(C(=O)NCc4ccccn4)n3Cc3ccccc32)cc1OC` [Example 32, 10-[(2,2′-Dimethoxy-[1,1′-biphenyl]-4-yl)carbonyl]-N-(2-pyridinylmethyl)-10,11-dihydro-5H-pyrrolo[2,1-c][1,4]benzodiazepine-3-carboxamide], the inhibition at 0.1 µM was 47%. In the case of `COc1cccc(-c2ccc(C(=O)N3Cc4ccc(C(=O)NCc5ccccn5)n4Cc4ccccc43)cc2OC)c1` [Example 33, 10-[(2,3′-Dimethoxy-[1,1′-biphenyl]-4-yl)carbonyl]-N-(2-pyridinylmethyl)-10,11-dihydro-5H-pyrrolo[2,1-c][1,4]benzodiazepine-3-carboxamide], the inhibition at 0.1 µM is reported as 42%. For `O=C(NCc1ccccn1)c1ccc2n1Cc1ccccc1N(C(=O)c1ccc(-c3cccc4ccccc34)cc1Cl)C2` [Example 34, 10-[2-Chloro-4-(naphthalen-1-yl)benzoyl]-N-(2-pyridinylmethyl)-10,11-dihydro-5H-pyrrolo[2,1-c][1,4]benzodiazepine-3-carboxamide], the inhibition at 0.1 µM was 5%. `Cc1cc(C(=O)N2Cc3ccc(C(=O)NCc4ccccn4)n3Cc3ccccc32)ccc1-c1ccccc1C(F)(F)F` [Example 35, 10-{[2-Methyl-2′-trifluoromethyl-[1,1′-biphenyl]-4-yl]carbonyl}-N-(2-pyridinylmethyl)-10,11-dihydro-5H-pyrrolo[2,1-c][1,4]benzodiazepine-3-carboxamide] showed an inhibition at 0.1 µM of 27%. `COc1ccccc1-c1ccc(C(=O)N2Cc3ccc(C(=O)NCc4cccnc4)n3Cc3ccccc32)cc1C` [Example 36, 10-[(2′-Methoxy-2-methyl-[1,1′-biphenyl]-4-yl)carbonyl]-N-(3-pyridinylmethyl)-10,11-dihydro-5H-pyrrolo[2,1-c][1,4]benzodiazepine-3-carboxamide] showed an inhibition at 0.1 µM of 46%. `Cc1ccccc1-c1ccc(C(=O)N2Cc3ccc(C(=O)NCc4cccnc4)n3Cc3ccccc32)cc1C` [Example 37, 10-[(2,2′-Dimethyl-[1,1′-biphenyl]-4-yl)carbonyl]-N-(3-pyridinylmethyl)-10,11-dihydro-5H-pyrrolo[2,1-c][1,4]benzodiazepine-3-carboxamide] gave an inhibition at 0.1 µM of 60%. `COc1cccc(-c2ccc(C(=O)N3Cc4ccc(C(=O)NCc5cccnc5)n4Cc4ccccc43)cc2C)c1` [Example 38, 10-[(3′-Methoxy-2-methyl-[1,1′-biphenyl]-4-yl)carbonyl]-N-(3-pyridinylmethyl)-10,11-dihydro-5H-pyrrolo[2,1-c][1,4]benzodiazepine-3-carboxamide] showed an inhibition at 0.1 µM of 26%. With `COc1ccccc1-c1ccc(C(=O)N2Cc3ccc(C(=O)NCc4cccnc4)n3Cc3ccccc32)cc1` [Example 39, 10-[(2′-Methoxy-[1,1′-biphenyl]-4-yl)carbonyl]-N-(3-pyridinylmethyl)-10,11-dihydro-5H-pyrrolo[2,1-c][1,4]benzodiazepine-3-carboxamide] the inhibition at 0.1 µM was 35%. In the case of `Cc1ccccc1-c1ccc(C(=O)N2Cc3ccc(C(=O)NCc4cccnc4)n3Cc3ccccc32)cc1` [Example 40, 10-[(2′-Methyl-[1,1′-biphenyl]-4-yl)carbonyl]-N-(3-pyridinylmethyl)-10,11-dihydro-5H-pyrrolo[2,1-c][1,4]benzodiazepine-3-carboxamide], the inhibition at 0.1 µM is reported as 17%. For `COc1cc(C(=O)N2Cc3ccc(C(=O)NCc4cccnc4)n3Cc3ccccc32)ccc1-c1ccccc1C` [Example 41, 10-[(2-Methoxy-2′-methyl-[1,1′-biphenyl]-4-yl)carbonyl]-N-(3-pyridinylmethyl)-10,11-dihydro-5H-pyrrolo[2,1-c][1,4]benzodiazepine-3-carboxamide], the inhibition at 0.1 µM was 41%. `COc1cc(-c2ccccc2C)c(Cl)cc1C(=O)N1Cc2ccc(C(=O)NCc3cccnc3)n2Cc2ccccc21` [Example 42, 10-[(6-Chloro-3-methoxy-2′-methyl-[1,1′-biphenyl]-4-yl)carbonyl]-N-(3-pyridinylmethyl)-10,11-dihydro-5H-pyrrolo[2,1-c][1,4]benzodiazepine-3-carboxamide] gave an inhibition at 0.1 µM of 33%.
